# Experimental data taken from US10564164B2, “Fluorescent probe, singlet oxygen detection agent, and singlet oxygen detection method” (Osaka University, priority 2014, dated 2020).
# Key:
# [1] = Selectivity test against various reactive oxygen species; format: physicochemical; details: 5 μM in methanol:PBS pH 7.4 1:1, 10 minutes in dark
# Experimental: A test was performed to confirm whether Si-DMA of Example 1 causes no self-oxidation of dye and is selectively responsive to singlet oxygen.
# However, formation of aggregates decreases the effective concentration of the dye, thereby decreasing the reaction speed of Si-DMA. Therefore, a 5-μM Si-DMA solution was first prepared using a mixed solvent containing methanol and a pH 7.4 PBS buffer solution mixed at 1:1. In this solution, Si-DMA was present as a monomer. Subsequently, 10-mM solutions of various reactive oxygen species (ROS)(^1O2, O2.^−, H2O2, HOCl, ROO., and .OH) were prepared by adding the following additives to the 5-μM Si-DMA solution obtained above.
# 5. ROO.: 10 mM 2,2-azobis(2-amidinopropane)dihydrochloride
# Under intense magnetic stirring, each Si-DMA solution containing reactive oxygen species (ROS) was stored for 10 minutes in a dark room. […]
# HeLa cells = test: Viable cell imaging / localization in organelle; format: cell-based; details: Si-DMA 20 nM / 100 nM, co-staining with Mito Tracker Green FM
# Experimental: A treatment requiring incubation of less than two hours was performed using a serum-free culture medium containing 20 mM of HEPES, and a treatment requiring incubation of four hours or more was performed using a blood serum-containing medium containing 20 mM of HEPES so as to maintain the cell viability. To label mitochondria, Mito Tracker® Green FM was diluted to 50 nM, and incubated for 30 minutes. Further, 10000 MW of dextran (A488- and A647-dextran) labeled with Alexa Fluor® 488 or Alexa Fluor® 647 was diluted to 50 μg/mL, and incubated for 24 hours, thereby staining lysosome.
# Subsequently, a quick protocol provided by Molecular Probe® for introducing CellROX Green was followed. […] As a result, as previously reported, the conversion of 5-ALA into protoporphyrin IX (PpIX) in the mitochondria was confirmed by the fluorescence luminescence of PpIX.
# In order to monitor an increase in fluorescence upon light irradiation on Si-DMA of Example 1, irradiation on reactive oxygen species was performed while monitoring the probe using an IX81 inverted fluorescence microscope (Olympus Corporation) and 640-nm CW laser (Coherent). […] The images of luminescence were collected and recorded by an EMCCD camera (Evolve 512; Roper Scientific) via a dichroic beam splitter (DI02-R635; Semrock) and a bandpass filter (HQ690/70; Chroma). […]
structure (smiles),measurement,setting,value
Cc1c2ccccc2c(C)c2cc(C3=C4C=CC(=[N+](C)C)C=C4[Si](C)(C)c4cc(N(C)C)ccc43)ccc12 [Si-DMA],fluorescence intensity in the presence of reactive oxygen species,"[1]; other reactive oxygen species (O2.-, H2O2, HOCl, ROO., .OH)",no increase in fluorescence was observed
same,fluorescence intensity in the presence of reactive oxygen species,[1]; singlet oxygen (10 mM NaOCl and 10 mM H2O2),significantly increased
same,intracellular localization,HeLa cells,selectively localized in mitochondria
